Experimental data from patent publication US12685717B2, “Suppression of inflammasome activation” (Washington University, priority 2020, dated 2026).

Legend:
Format in all cases: cell-based
RAW 264.7 cells = experiment: LPS-induced inflammatory cytokine mRNA expression in RAW 264.7 cells (qRT-PCR); details: 10 μM, 2 hours preincubation, LPS 50 ng/ml for 30 minutes, FIG. 6
Protocol: RAW 264.7 cells were incubated with either vehicle (DMSO) or SN-401 (10 μM) and SN-406 (10 μM) for 2 hours and subsequently, cells were activated with either LPS (50 ng/ml) alone or along with SN-401 (10 μM) and SN-406 (10 μM) for 30 minutes. After the activation cells were harvested for qRT-PCR analysis (see FIG. 6, panels A-C). Relative mRNA expression for selected inflammatory markers, IL1β, TNF-α and CXCL10 from 3 independent experiments. Statistical significance between the indicated groups were calculated by using a two-tailed Student's t-test. Error bars represent mean ±s.e.m. *, P<0.05, **, P<0.01, ***, P<0.001, ****, P<0.0001.

[1] = system: inflammasome mediated IL-1β secretion from primary macrophages; experiment: Macrophage inflammasome activation (IL-1β) in response to LPS + MSU crystals; details: LPS priming followed by MSU, FIG. 5
Text: See FIG. 4 for the structures of the compounds. Mechanical stimulation by MSU crystals function as a physiological activation mechanism for the putatively mechanosensitive SWELL1-LRRC8 channel complex as macrophages engulf MSU and undergo large volume changes. This is analogous to cholesterol crystals that are thought to contribute to NASH by driving simple hepatic steatosis toward fibrotic steatosis. […] First-pass effect from oral delivery, combined with the fact that SN-40X are lipophilic carboxylic acids may conspire to increase hepatic drug concentrations sufficiently to exert anti-inflammatory activity on resident hepatic macrophages and Kupffer cells that contribute to steatohepatitis.

SWELL1 current = experiment: Hypotonically-induced currents in wild-type primary macrophages; details: wild-type (WT) primary macrophages, 210 mOsm; FIG. 7
[2] = system: SWELL1 KO primary macrophages; experiment: Hypotonically-induced currents in SWELL1 KO primary macrophages; details: 210 mOsm, FIG. 8
Protocol: See FIG. 7 (Panel A, Current over time plot; Panel B, Current voltage plot from (A) above). Current over time of hypotonically-induced currents in SWELL1 KO primary macrophages (210 mOsm) was measured along with DCPIB response. […] See FIG. 8 (Panel A, Current over time plot; Panel B, Current voltage plot from (A) above).

Row | Compound | expression of LPS-induced inflammatory cytokine production (relative mRNA IL1β, TNF-α, CXCL10) (RAW 264.7 cells) | suppression of inflammasome mediated IL-1β secretion [1] | inhibition of hypotonically-induced current (SWELL1 current) | response of hypotonically-induced current [2]
1 | CCCCC1(C2CCCC2)Cc2cc(OCCCC(=O)O)c(Cl)c(Cl)c2C1=O (stereo not drawn) [SN-401] | Inhibit | fully suppressed | – | –
2 | CCCCC1(C2CCCC2)Cc2cc(OCCCCCC(=O)O)c(Cl)c(Cl)c2C1=O (stereo not drawn) [SN-406] | Inhibit | fully suppressed | – | –
3 | CCCCC1(C2CCCC2)Cc2cc(OCCCC(=O)O)c(Cl)c(Cl)c2C1=O (stereo not drawn) [DCPIB, 4-[(2-butyl-6,7-dichloro-2-cyclopentyl-1-oxo-2,3-dihydro-1H-inden-5-yl)oxy]butanoic acid] | – | – | inhibition | No response
